The record followed here is patent US9409966B2, “Glucagon-like peptide-1 derivatives and their pharmaceutical use” (priority 2007, dated 2016).

Experiment [1] deals with human serum albumin (HSA) (Homo sapiens, UniProt P02768). Briefly: Albumin binding affinity, competition scintillation proximity assay (SPA). For orientation: SPA uses beads or plates that emit light when radiolabelled molecules are held near them.
Method: Streptavidin-SPA beads (GE Healthcare RPNQ0009) were incubated with biotinylated HSA for 5 hours. The beads were washed with buffer to remove unbound HSA. […] After 20 hours of gentle rocking at room temperature the plates were centrifuged and counted on a TopCounter.
The target in experiment [2] is T1, human GLP-1 receptor (Homo sapiens, UniProt P43220).
T1 construct: expressed in transfected cells; host or cells: BHK467-12A (tk-ts13) baby hamster kidney cells; purified plasma membranes
Briefly: Stimulation of cAMP formation in a cell line expressing the cloned human GLP-1 receptor. It counts as biochemical. The note with it: cAMP production, purified plasma membranes from BHK467-12A (tk-ts13), AlphaScreen cAMP Assay Kit; read-out: Potency [EC50/nM].
Method: A stable transfected cell line has been prepared at NN A/S, Denmark, and a high expressing clone was selected for screening. The cells were grown at 5% CO2 in DMEM, 5% FCS, 1% Pen/Strep (Penicillin/Streptomycin) and 0.5 mg/ml of the selection marker G418.
Cells at approximate 80% confluence were washed 2× with PBS (Phosphate Buffered Saline) and harvested with Versene (aqueous solution of the tetrasodium salt of ethylenediaminetetraacetic acid), centrifuged 5 min at 1000 rpm and the supernatant removed. The additional steps were all made on ice. […] Suspension in Buffer 2, homogenization and centrifugation was repeated once and the membranes were resuspended in Buffer 2 and ready for further analysis or stored at −80° C.
The functional receptor assay was carried out by measuring the peptide induced cAMP production by The AlphaScreen Technology. […] The capture of cAMP is achieved by using a specific antibody conjugated to acceptor beads. Formed cAMP was counted and measured at a AlphaFusion Microplate Analyzer. The EC50 values were calculated using the Graph-Pad Prisme software (version 5).

*1 amine or outer side, *2 acyl side, *3 side chain or, on linkers, in order; H or OH if unused. Where a SMILES comes first, the peptide text is derived from it. Side-chain parts run from the residue outwards. [ ]: non-standard residue; d: D form. The star is where a group is joined. C18 diacid = O=C(O)CCCCCCCCCCCCCCCCC(=O)*; γGlu = O=C(O)[C@H](CCC(=O)[*:2])N[*:1]; Palmitoyl = CCCCCCCCCCCCCCCC(=O)*; AEEA = NCCOCCOCC(=O)O; Aib = CC(C)(N)C(=O)O

T1 sequence (P43220 24-463): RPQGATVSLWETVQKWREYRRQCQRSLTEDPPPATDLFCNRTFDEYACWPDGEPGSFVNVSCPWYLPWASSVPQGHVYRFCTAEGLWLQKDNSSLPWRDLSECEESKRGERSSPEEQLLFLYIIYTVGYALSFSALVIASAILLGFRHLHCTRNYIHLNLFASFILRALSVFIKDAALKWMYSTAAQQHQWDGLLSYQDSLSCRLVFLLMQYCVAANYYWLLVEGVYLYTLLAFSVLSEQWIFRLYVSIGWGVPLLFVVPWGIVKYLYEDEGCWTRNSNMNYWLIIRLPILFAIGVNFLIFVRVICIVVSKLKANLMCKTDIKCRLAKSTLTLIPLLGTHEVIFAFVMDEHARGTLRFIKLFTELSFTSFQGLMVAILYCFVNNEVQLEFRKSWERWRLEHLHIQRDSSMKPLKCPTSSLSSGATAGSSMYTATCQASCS
Sequence of human serum albumin (HSA) (P02768 25-609): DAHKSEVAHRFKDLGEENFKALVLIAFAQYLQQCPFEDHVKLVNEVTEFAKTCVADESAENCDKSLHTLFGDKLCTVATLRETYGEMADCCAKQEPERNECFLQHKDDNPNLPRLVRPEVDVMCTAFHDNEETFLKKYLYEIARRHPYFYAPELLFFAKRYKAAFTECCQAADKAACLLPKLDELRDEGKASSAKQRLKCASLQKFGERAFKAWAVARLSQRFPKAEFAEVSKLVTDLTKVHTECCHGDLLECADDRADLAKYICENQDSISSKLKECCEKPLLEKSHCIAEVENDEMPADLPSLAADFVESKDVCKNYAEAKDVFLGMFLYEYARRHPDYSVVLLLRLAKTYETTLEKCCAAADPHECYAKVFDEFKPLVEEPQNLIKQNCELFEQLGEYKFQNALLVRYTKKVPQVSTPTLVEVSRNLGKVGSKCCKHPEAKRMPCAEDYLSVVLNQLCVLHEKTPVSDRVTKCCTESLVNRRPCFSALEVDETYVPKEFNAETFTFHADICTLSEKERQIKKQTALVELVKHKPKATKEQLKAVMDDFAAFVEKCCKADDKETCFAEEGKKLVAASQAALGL

For `CC[C@H](C)[C@H](NC(=O)[C@H](Cc1ccccc1)NC(=O)[C@H](CCC(=O)O)NC(=O)[C@H](CCCNC(=N)N)NC(=O)[C@H](C)NC(=O)[C@H](C)NC(=O)[C@H](CCC(N)=O)NC(=O)[C@H](CCC(=O)O)NC(=O)[C@H](CCC(=O)O)NC(=O)[C@H](CC(C)C)NC(=O)[C@H](Cc1ccc(O)cc1)NC(=O)[C@H](CO)NC(=O)[C@H](CO)NC(=O)[C@@H](NC(=O)[C@H](CC(=O)O)NC(=O)[C@H](CO)NC(=O)[C@@H](NC(=O)[C@H](Cc1ccccc1)NC(=O)[C@@H](NC(=O)CNC(=O)[C@H](CCC(=O)O)NC(=O)C(C)(C)NC(=O)[C@@H](N)Cc1c[nH]cn1)[C@@H](C)O)[C@@H](C)O)C(C)C)C(=O)N[C@@H](C)C(=O)N[C@@H](Cc1c[nH]c2ccccc12)C(=O)N[C@@H](CC(C)C)C(=O)N[C@H](C(=O)N[C@@H](CCCNC(=N)N)C(=O)NCC(=O)N[C@@H](CCCNC(=N)N)C(=O)N[C@@H](CCCCNC(=O)COCCOCCNC(=O)COCCOCCNC(=O)CC[C@H](NC(=O)CCCCCCCCCCCCCCCCC(=O)O)C(=O)O)C(=O)O)C(C)C` [Example 27, N-epsilon37-[2-(2-{2-[2-(2-{2-[(S)-4-Carboxy-4-(17-carboxy-heptadecanoylamino)-butyrylamino]-ethoxy}-ethoxy)-acetylamino]-ethoxy}-ethoxy)-acetyl] [Aib8,Glu22,Arg26,Arg34,Lys37]GLP-1-(7-37)], the EC50 in experiment [1] is 100 to 150 nM; in experiment [2], 0.05 nM.

As to `CC[C@H](C)[C@H](NC(=O)[C@H](Cc1ccccc1)NC(=O)[C@H](CCC(=O)O)NC(=O)[C@H](CCCNC(=N)N)NC(=O)[C@H](C)NC(=O)[C@H](C)NC(=O)[C@H](CCC(N)=O)NC(=O)[C@H](CCC(=O)O)NC(=O)[C@H](CCC(=O)O)NC(=O)[C@H](CC(C)C)NC(=O)[C@H](Cc1ccc(O)cc1)NC(=O)[C@H](CO)NC(=O)[C@H](CO)NC(=O)[C@@H](NC(=O)[C@H](CC(=O)O)NC(=O)[C@H](CO)NC(=O)[C@@H](NC(=O)[C@H](Cc1ccccc1)NC(=O)[C@@H](NC(=O)CNC(=O)[C@H](CCC(=O)O)NC(=O)C(C)(C)NC(=O)[C@@H](N)Cc1c[nH]cn1)[C@@H](C)O)[C@@H](C)O)C(C)C)C(=O)N[C@@H](C)C(=O)N[C@@H](CCCCNC(=O)COCCOCCNC(=O)COCCOCCNC(=O)CC[C@H](NC(=O)CCCCCCCCCCCCCCCCC(=O)O)C(=O)O)C(=O)N[C@@H](CC(C)C)C(=O)N[C@H](C(=O)N[C@@H](CCCCN)C(=O)NCC(=O)N[C@@H](CCCNC(=N)N)C(=O)NCC(=O)O)C(C)C` [Example 23, N-epsilon31-[2-(2-{2-[2-(2-{2-[4-Carboxy-4-(17-carboxy-heptadecanoylamino)butyrylamino]ethoxy}ethoxy)acetylamino]ethoxy}ethoxy)acetyl][Aib8,Glu22,Arg26,Lys31]GLP-1-(7-37)] (H-H[Aib]EGTFTSDVSSYLEEQAAREFIAK([AEEA-AEEA-γGlu-C18 diacid])LVKGRG-OH), the figures for the EC50 in experiment [1] and in experiment [2] were 1500 to 2000 nM and 0.02 nM, respectively.

With `CCCCCCCCCCCCCCCC(=O)N[C@@H](CCC(=O)NCCOCCOCC(=O)NCCOCCOCC(=O)NCCCC[C@H](NC(=O)[C@H](Cc1ccc(O)cc1)NC(=O)[C@H](CO)NC(=O)[C@H](CO)NC(=O)[C@@H](NC(=O)[C@H](CC(=O)O)NC(=O)[C@H](CO)NC(=O)[C@@H](NC(=O)[C@H](Cc1ccccc1)NC(=O)[C@@H](NC(=O)CNC(=O)[C@H](CCC(=O)O)NC(=O)C(C)(C)NC(=O)[C@@H](N)Cc1c[nH]cn1)[C@@H](C)O)[C@@H](C)O)C(C)C)C(=O)N[C@@H](CCC(=O)O)C(=O)N[C@@H](CCC(=O)O)C(=O)N[C@@H](CCC(N)=O)C(=O)N[C@@H](C)C(=O)N[C@@H](C)C(=O)N[C@@H](CCCNC(=N)N)C(=O)N[C@@H](CCC(=O)O)C(=O)N[C@@H](Cc1ccccc1)C(=O)N[C@H](C(=O)N[C@@H](CCC(=O)O)C(=O)N[C@@H](Cc1c[nH]c2ccccc12)C(=O)N[C@@H](CC(C)C)C(=O)N[C@H](C(=O)N[C@@H](CCCCN)C(=O)NCC(=O)N[C@@H](CCCNC(=N)N)C(=O)N1CCC[C@H]1C(N)=O)C(C)C)[C@@H](C)CC)C(=O)O` [Example 24, N-epsilon20-(2-{2-[2-(2-{2-[2-((S)-4-Carboxy-4-hexadecanoylamino-butyrylamino)ethoxy]ethoxy}acetylamino)ethoxy]ethoxy}-acetyl)[Aib8,Lys20,Glu22,Arg26,Glu30,Pro37]GLP-1-(7-37)amide] (H-H[Aib]EGTFTSDVSSYK([AEEA-AEEA-γGlu-Palmitoyl])EEQAAREFIEWLVKGRP-NH2), the values for the EC50 in experiment [1] and in experiment [2] were 1500 to 2000 nM and 0.01 nM, respectively.

As to `CC[C@H](C)[C@H](NC(=O)[C@H](Cc1ccccc1)NC(=O)[C@H](CCC(=O)O)NC(=O)[C@H](CCCNC(=N)N)NC(=O)[C@H](C)NC(=O)[C@H](C)NC(=O)[C@H](CCC(N)=O)NC(=O)[C@H](CCC(=O)O)NC(=O)[C@H](CCC(=O)O)NC(=O)[C@H](CC(C)C)NC(=O)[C@H](Cc1ccc(O)cc1)NC(=O)[C@H](CO)NC(=O)[C@H](CO)NC(=O)[C@@H](NC(=O)[C@H](CC(=O)O)NC(=O)[C@H](CO)NC(=O)[C@@H](NC(=O)[C@H](Cc1ccccc1)NC(=O)[C@@H](NC(=O)CNC(=O)[C@H](CCC(=O)O)NC(=O)[C@H](C)NC(=O)CCc1c[nH]cn1)[C@@H](C)O)[C@@H](C)O)C(C)C)C(=O)N[C@@H](C)C(=O)N[C@@H](Cc1c[nH]c2ccccc12)C(=O)N[C@@H](CC(C)C)C(=O)N[C@H](C(=O)N[C@@H](CCCNC(=N)N)C(=O)NCC(=O)N[C@@H](CCCNC(=N)N)C(=O)N[C@@H](CCCCNC(=O)COCCOCCNC(=O)COCCOCCNC(=O)CC[C@H](NC(=O)[C@H]1CC[C@H](CNC(=O)CCCCCCCCCCCCCCCCCCC(=O)O)CC1)C(=O)O)C(=O)O)C(C)C` [Example 9, N-epsilon37-[2-(2-{2-[2-(2-{2-[(S)-4-Carboxy-4-({trans-4-[(19-carboxy-nonadecanoylamino)methyl]cyclohexanecarbonyl}amino)butyrylamino]ethoxy}ethoxy)acetylamino]ethoxy}ethoxy)acetyl][DesaminoHis7,Glu22,Arg26,Arg34,Lys37]GLP-1-(7-37)], the EC50 is 800 to 1500 nM in experiment [1] and 0.5 nM in experiment [2].

For the molecule `CC[C@H](C)[C@H](NC(=O)[C@H](Cc1ccccc1)NC(=O)[C@H](CCC(=O)O)NC(=O)[C@H](CCCNC(=N)N)NC(=O)[C@H](C)NC(=O)[C@H](C)NC(=O)[C@H](CCC(N)=O)NC(=O)[C@H](CCC(=O)O)NC(=O)[C@H](CCC(=O)O)NC(=O)[C@H](CC(C)C)NC(=O)[C@H](Cc1ccc(O)cc1)NC(=O)[C@H](CO)NC(=O)[C@H](CO)NC(=O)[C@@H](NC(=O)[C@H](CC(=O)O)NC(=O)[C@H](CO)NC(=O)[C@@H](NC(=O)[C@H](Cc1ccccc1)NC(=O)[C@@H](NC(=O)CNC(=O)[C@H](CCC(=O)O)NC(=O)[C@H](C)NC(=O)CCc1c[nH]cn1)[C@@H](C)O)[C@@H](C)O)C(C)C)C(=O)N[C@@H](C)C(=O)N[C@@H](Cc1c[nH]c2ccccc12)C(=O)N[C@@H](CC(C)C)C(=O)N[C@H](C(=O)N[C@@H](CCCNC(=N)N)C(=O)NCC(=O)N[C@@H](CCCNC(=N)N)C(=O)N[C@@H](CCCCNC(=O)CCCS(=O)(=O)NC(=O)CCCCCCCCCCCCCCCc1nnn[nH]1)C(N)=O)C(C)C` [Example 21, N-epsilon37-[4-(16-(1H-Tetrazol-5-yl)hexadecanoylsulfamoyl)butyryl][DesaminoHis7,Glu22,Arg26,Arg34,Lys37]GLP-1-(7-37)amide], the EC50 in experiment [1] was over 2000 nM; in experiment [2] it was 1.27 nM.
